According to US20220354811A1, “METHODS AND COMPOSITIONS FOR MODULATING MACROPHAGES POLARIZATION” (INSERM (INSTITUT NATIONAL DE LA SANTÉ ET DE LA RECHERCHE …, priority 2019, published 2022):

Assays:
[1] = system: bleomycin-induced pulmonary fibrosis; assay: Bleomycin-induced lung fibrosis in mice; assay type: in vivo; settings: subcutaneous 18 μg/g body weight twice a day for three weeks; bleomycin-treated mice
Text: FIG. 7. Pharmacologic and genetic inhibition of caspase-8 prevents bleomycin-induced pulmonary fibrosis. (A) Quantification of Sirius Red labeling intensity. […] Each dot or square is an individual mouse. *P<0.05 according to Mann-Whitney test. (B) Quantification of airspace number/mm2 of parenchymal tissue. Results expressed as fold change in treated compared to control mice as in B. *P<0.05 according to Mann-Whitney test. (C) Quantification of Sirius Red labeling intensity. Results expressed as fold change in treated compared to control mice, C8 KO+bleomycin compared to C8 KO as in B. *P<0.05 according to Mann-Whitney test. (D) Quantification of airspace number/mm2 of parenchymal tissue. Results are expressed as fold change in treated compared to untreated wild-type mice, as in panel E. *P<0.05 according to Mann-Whitney test. (E) Cytokines were measured in broncho-alveolar lavage fluid collected from bleomycin-treated wild-type (wt) and LysM-Cre/Caspase-8 flox/flox (C8 KO) mice treated with bleomycin. Results are expressed as fold-changes compared to untreated mice. *P<0.05, **P<0.01 according to Mann-Whitney test. […]
Procedures were approved by our Institutional Ethical Committee (CEEA 26) and the French Ministry of Research (#9861). […] To quantify airspace number, tissue sections 4-μm stained with Sirius Red were scanned using a NanoZoomer-SQ (Hamamatsu Corporation, Japan). […]

[2] = system: IL4-polarized macrophages; assay: mRNA expression in IL-4-polarized macrophages (RNAseq, qPCR); assay type: cell-based, human
Description: Human monocytes were differentiated during 5 days with 50 ng/mL CSF-1 and then polarized into MO-macrophages (CSF-1) or M2-macrophages (IL-4) for 24 (mRNA) or 48 hours. […] The expression of the indicated mRNA is analyzed by qPCR (mean ±SEM of 6 independent experiments). *P<0.05, **P<0.01 according to a paired student t test (versus M2-macrophages).
The RNA integrity (RNA Integrity Score≥7.0) was checked on the Agilent 2100 Bioanalyzer (Agilent) and quantity was determined using Qubit (Invitrogen). SureSelect Automated Strand Specific RNA Library Preparation Kit was used according to manufacturer's instructions with the Bravo Platform. Briefly, 50 to 200 ng of total RNA sample was used for poly-A mRNA selection using oligo(dT) beads and subjected to thermal mRNA fragmentation. The fragmented mRNA samples were subjected to cDNA synthesis and were further converted into double stranded DNA using the reagents supplied in the kit, and the resulting dsDNA was used for library preparation. The final libraries were bar-coded, purified, pooled together in equal concentrations and subjected to paired-end sequencing on Novaseq-6000 sequencer (Illumina) at Gustave Roussy.
Quantification. Quality of raw FastQ files was assessed with Fastqc v0.11.8 and Fastq-screen v0.13.0. Quality report was gathered with MultiQC v1.8. Abundance estimation was performed with Salmon v0.14.1 using following parameters: —libType A —validateMappings —numBootstraps 60. Salmon index was created using Human Gencode reference annotation release 33 and using following parameters —gencode —keepDuplicates. Differential analysis. Statistical analysis was performed using R 3.6.1. Transcript expression levels were aggregated in gene expression levels using tximport v1.14.0 Bioconductor package. At this step only protein coding genes were considered. We also decided to keep only high quality annotations therefore genes annotated as “automated annotation” in GENCODE were discarded. DESeq2 v1.26.0 method was used to identify differentially expressed genes between groups with an adjusted p-value threshold of 0.05.
RNA was prepared from 5×10^6 cells using the RNeasy Mini Kit according to manufacturer's protocol (Qiagen, 74104). Each cDNA sample was prepared using AMV RT and random primers (Promega, M510F and C1181). Real-time polymerase chain reaction (PCR) was performed using the SyBR Green detection protocol (Life Technologies, 4367659). Briefly, 5 ng of total cDNA, 500 nM (each) primers, and 5 μL SyBR Green mixture were used in a total volume of 10 μL. Detection of multiple endogenous controls (ACTB, L32 and UBIQUITIN) were used to normalize the results. Specific forward and reverse primers are accessible upon request.

[3] = system: human primary monocytes; settings: literature (Jacquel et al., Blood 2009, Sci Reports 2018); cited from earlier work
[4] = qPCR, Emricasan 3 μM added 16h before polarization

Row | SMILES | lung fibrosis intensity (Sirius Red staining intensity and air space) [1] | IL-4 induction of anti-inflammatory and repression of pro-inflammatory markers (RNAseq) ([2]; macrophages from three different donors) | IL-4-increased CCL18 mRNA expression [2, 4] | IL-4-increased CD200R mRNA expression [2, 4] | CXCL8 mRNA level ([2]; qPCR, IL-4 combined with Emricasan 3 μM) | effect on CSF-1-induced monocyte differentiation [3]
1 | C[C@H](NC(=O)C(=O)Nc1ccccc1C(C)(C)C)C(=O)N[C@@H](CC(=O)O)C(=O)COc1c(F)c(F)cc(F)c1F [Emricasan, (S)-3-((S)-2-(2-((2-(tert-Butyl)phenyl)amino)-2-oxoacetamido)propanamido)-4-oxo-5-(2,3,5,6-tetrafluorophenoxy)pentanoic acid] | dramatically decreases | counteracted | counteracted | counteracted | upregulated | –
2 | CC(C)[C@H](NC(=O)c1ccc2ccccc2n1)C(=O)N[C@@H](CC(=O)O)C(=O)COc1c(F)cccc1F [Q-VD-OPh] | – | – | – | – | – | inhibits
